{"source": "patent US9006185B2", "about": "“Use of cell-permeable peptide inhibitors of the JNK signal transduction pathway for the treatment of various diseases” (Xigen Inflammation Ltd., priority 2008, dated 2015)", "key": {"[1]": {"test_system": "Varicella-Zoster Virus (VZV)", "assay": "Plaque reduction assay against VZV in HFFs", "type": "cell-based, human", "details": "for Spread of VZV (pfu) ± SD: 24 hours", "method": "Additionally, inhibitors of cell functions may be toxic to cells, which could non-specifically prevent virus growth. […] Since this may falsify the results, a cytotoxicity assay was carried out first, determining the tolerance of the cultured cells to the test compound. Subsequently, a plaque reduction assay was carried out and then activity of the JNK inhibitor peptide XG-102 (SEQ ID NO: 11) was tested with respect to […] (VZV) in infected cells. • A) Determination of the Cytotoxicity of all-D Retro-Inverso Ib(s) Peptides: • For determination of toxicity, cultured cells (human foreskin fibroblasts (HFFs)) were seeded in 96-well tissue culture plates. Medium containing DMSO (same level as 5 μM XG-102 (SEQ ID NO: 11)), or XG-102 (SEQ ID NO: 11) was added at several concentrations of (1, 2, and 5 μM) for 24 h. Subsequently, a Neutral Red assay was carried out. Neutral Red colorimetric assays for cytotoxicity assays (in sets of 6 replicates) were used to set the maximum dose for subsequent efficacy assays (as performed in Taylor et al, 2004, J. Virology, 78:2853-2862). Live cells absorb Neutral Red and, accordingly, the level of absorbance is a quantitative measure of cell viability and number. Neutral Red uptake is directly proportional to the number of cells and also reflects normal endocytosis. Therefore, a brief pulse of Neutral Red was added to the medium at 0 or 24 hours. After fixation and extraction, dye was added and the amount of dye in each sample was measured in an ELISA plate reader at 540 nm (see FIG. 4). […] In this plaque reduction assay, confluent human foreskin fibroblasts (HFFs) in 24-well plates were inoculated with VZV-infected HFFs at a ratio of 1:100 (multiplicity of infection MOI=0.01) and adsorbed to the cells for 2 hours. The excess virus was washed out, and medium containing 0 (DMSO only), 0.5, 1, or 2 μM XG-102 (SEQ ID NO: 11) was added. One sample was taken at this time to measure the initial level of infection; wherein each well contained ˜150 pfu. After 24 hours, duplicate wells were trypsinized, and then the cell suspensions were titered on MeWo cell monolayers in triplicate to determine the number of VZV-infected cells in each sample. During unrestricted growth, VZV usually increases by 10-fold over 1 day because it propagates by cell-cell spread. […]"}, "hAPP Tg mice": {"test_system": "hAPP Tg mice", "assay": "Morris Water Maze in hAPP transgenic mice", "type": "in vivo", "method": "i) Introduction • The study was designed to evaluate the efficacy of the test substance (XG-102, SEQ ID NO: 11) on behavioral, biochemical and histological markers using 5 months (±2 weeks) old female hAPP Tg mice. Therefore, mice were treated every two or three weeks up to 4 months and in the end of the treatment period behavior was evaluated in the Morris Water Maze. At sacrifice brain, CSF and blood were collected. Aβ40 and Aβ42 levels were determined in four different brain homogenate fractions as well as in CSF of Tg mice. Plaque load was quantified in the cortex and the hippocampus of 8 Tg animals per treatment group.\nii) Animals • Female Tg mice with a C57BL/6×DBA background and an age of 5 months (±2 week) were randomly assigned to treatment groups 1 to 3 (n=12). […]\nv) Morris Water Maze (MWM) • The Morris Water Maze (MWM) task was conducted in a black circular pool of a diameter of 100 cm. […] For the quantification of escape latency (the time [second]—the mouse needed to find the hidden platform and therefore to escape from the water), of pathway (the length of the trajectory [meter] to reach the target) and of the abidance in the goal quadrant a computerized tracking system was used. […] The camera detected the signal of the light emitting diode (LED), which was fixed with a little hairgrip on the mouse's tail. […]"}}, "note": "“Also recorded” adds a separate entry of the source.", "data": [{"smiles": "CC(C)C[C@@H](NC(=O)[C@@H](Cc1ccccc1)NC(=O)[C@H]1CCCN1C(=O)[C@@H](CCC(N)=O)NC(=O)[C@H](NC(=O)[C@H]1CCCN1C(=O)[C@@H](CCCNC(=N)N)NC(=O)[C@@H](CO)NC(=O)[C@@H](CCC(N)=O)NC(=O)[C@H](N)CC(=O)O)C(C)C)C(=O)N[C@H](CC(N)=O)C(=O)N[C@H](CC(C)C)C(=O)N[C@@H](C(=O)N[C@@H](C(=O)N1CCC[C@@H]1C(=O)N[C@H](CCCNC(=N)N)C(=O)N[C@H](CCCCN)C(=O)N1CCC[C@@H]1C(=O)N[C@H](CCCNC(=N)N)C(=O)N1CCC[C@@H]1C(=O)N1CCC[C@@H]1C(=O)N[C@H](CCCNC(=N)N)C(=O)N[C@H](CCCNC(=N)N)C(=O)N[C@H](CCCNC(=N)N)C(=O)N[C@H](CCC(N)=O)C(=O)N[C@H](CCCNC(=N)N)C(=O)N[C@H](CCCNC(=N)N)C(=O)N[C@H](CCCCN)C(=O)N[C@H](CCCCN)C(=O)N[C@H](CCCNC(=N)N)C(=O)NCC(=O)O)[C@H](C)O)[C@H](C)O", "note": "[XG-102]", "values": [{"measurement": "Spread of VZV (pfu) ± SD", "setting": "[1]; 0.5 μM", "result": "260 ± 53", "unit": "pfu"}, {"measurement": "Spread of VZV (pfu) ± SD", "setting": "[1]; 1.0 μM", "result": "212 ± 48", "unit": "pfu"}, {"measurement": "Spread of VZV (pfu) ± SD", "setting": "[1]; 2.0 μM", "result": "312 ± 79", "unit": "pfu"}, {"measurement": "antiviral effect against VZV", "setting": "[1]; 0.5, 1, 2 μM", "result": "potent inhibitor of Varizella Zoster Virus (VZV); also recorded: strong antiviral effect at all the concentrations tested"}, {"measurement": "VZV yields", "setting": "[1]; all the concentrations tested (0.5-2 μM)", "result": "200-300 pfu"}, {"measurement": "learning performance in the MWM", "setting": "hAPP Tg mice; 0.1 mg/kg", "result": "a tendency to have worse learning performance between day 1 and day 4"}, {"measurement": "spatial learning in the MWM", "setting": "hAPP Tg mice; 0.1 mg/kg every two weeks or 10 mg/kg every three weeks s.c., four months", "result": "remained widely uninfluenced"}]}]}
